Assay results taken from patent US20140045746A1 (Merck Sharp & Dohme Corp., priority 2012, published 2014).

How the values were obtained:
hGPR40 [1] = target: T1, hGPR40 (Homo sapiens, UniProt O14842); experiment: GPR40 Inositol Phosphate Turnover (IP1) Assay; assay type: cell-based; set-up: expressed in transfected cells; host or cells: HEK cells stably expressing the aequorin reporter; conditions: HEK cells stably expressing human GPR40; 0% serum; read-out: hGPR40 IP1 EC50 (0% serum)
hGPR40 [2] = target: T1, hGPR40; experiment: GPR40 FLIPR assay (agonist-induced calcium mobilization); assay type: cell-based; set-up: expressed in transfected cells; host or cells: CHO cells stably expressing NFAT BLA (beta-lactamase); conditions: GPR40/CHO NFAT BLA cells;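 further: calcium mobilization in the cells read as fluorescence of fluo-4 AM loaded cells on FLIPR after compound addition, cells preloaded with dye 100 min at room temperature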

T1 sequence (O14842 whole entry): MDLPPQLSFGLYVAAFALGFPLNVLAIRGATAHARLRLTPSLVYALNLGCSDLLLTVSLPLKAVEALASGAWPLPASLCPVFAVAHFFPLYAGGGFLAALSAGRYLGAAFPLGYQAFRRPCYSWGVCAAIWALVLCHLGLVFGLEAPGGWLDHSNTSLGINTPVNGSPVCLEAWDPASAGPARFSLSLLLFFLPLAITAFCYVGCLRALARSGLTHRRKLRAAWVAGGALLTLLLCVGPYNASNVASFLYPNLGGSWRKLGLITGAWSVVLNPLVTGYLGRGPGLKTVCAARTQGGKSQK

| SMILES | EC50 (hGPR40 [1]) | EC50 (hGPR40 [2]) |
| --- | --- | --- |
| O=C(O)C1C2Cc3cc(OCc4cc(-c5ccc(C(F)(F)F)cc5)ccc4F)ncc3C21 (stereo not drawn) [Compound 22-4, 3-((4-fluoro-4′-(trifluoromethyl)-[1,1′-biphenyl]-3-yl)methoxy)-5,5a,6,6a-tetrahydrocyclo-propa[4,5]cyclopenta[1,2-c]pyridine-6-carboxylic acid] | 240 nM | 54 nM |
| O=C(O)C1C2Cc3cc(OCc4cc(-c5cccc(C(F)(F)F)c5)ccc4F)ncc3C21 (stereo not drawn) [Compound 22-5, 3-((4-fluoro-3′-(trifluoromethyl)-[1,1′-biphenyl]-3-yl)methoxy)-5,5a,6,6a-tetrahydrocyclo-propa[4,5]cyclopenta[1,2-c]pyridine-6-carboxylic acid] | 310 nM | 47 nM |
| O=C(O)C1C2Cc3cc(OCc4cc(-c5c(F)cccc5C(F)(F)F)ccc4F)ncc3C21 (stereo not drawn) [Compound 22-6, 3-((2′,4-difluoro-6′-(trifluoromethyl)-[1,1′-biphenyl]-3-yl)methoxy)-5,5a,6,6a-tetrahydrocyclo-propa[4,5]cyclopenta[1,2-c]pyridine-6-carboxylic acid] | 100 nM | 87 nM |
| O=C(O)C1C2Cc3cc(OCc4cc(-c5cc(Cl)cc(C(F)(F)F)c5)ccc4F)ncc3C21 (stereo not drawn) [Compound 22-7, 3-((3′-chloro-4-fluoro-5′-(trifluoromethyl)-[1,1′-biphenyl]-3-yl)methoxy)-5,5a,6,6a-tetrahydrocyclo-propa[4,5]cyclopenta[1,2-c]pyridine-6-carboxylic acid] | 400 nM | 67 nM |
| O=C(O)C1C2Cc3cc(OCc4cc(-c5cccnc5C(F)(F)F)ccc4F)ncc3C21 (stereo not drawn) [Compound 22-8, 3-((2-fluoro-5-(2-(trifluoromethyl)pyridin-3-yl)benzyl)oxy)-5,5a,6,6a-tetrahydrocyclopenta[4,5] cyclopenta[1,2-c]pyridine-6-carboxylic acid] | 75 nM | 48 nM |
| O=C(O)C1C2Cc3cc(OCc4cc(-c5ncccc5C(F)(F)F)ccc4F)ncc3C21 (stereo not drawn) [Compound 22-9, 3-((2-fluoro-5-(3-(trifluoromethyl)pyridin-2-yl)benzyl)oxy)-5,5a,6,6a-tetrahydrocyclopropa[4,5] cyclopenta[1,2-c]pyridine-6-carboxylic acid] | 850 nM | 95 nM |
| Cc1cc(OCCCS(C)(=O)=O)ncc1-c1ccc(F)c(COc2cc3c(cn2)[C@H]2[C@@H](C3)[C@@H]2C(=O)O)c1 [Compound 23-8, 4-{2-Fluoro-5-[6-(3-methanesulfonyl-propoxy)-4-methyl-pyridin-3-yl]-benzyloxy}-1,1a,6,6a-tetrahydro-3-aza-cyclopropa[a]indene-1-carboxylic acid] | 4.8 nM | 26 nM |
| Cc1nc(OCCCS(C)(=O)=O)ccc1-c1ccc(F)c(COc2cc3c(cn2)[C@H]2[C@@H](C3)[C@@H]2C(=O)O)c1 [Compound 23-10, (5aR,6S,6aS)-3-((2-fluoro-5-(2-methyl-6-(3-(methylsulfonyl)propoxy)pyridin-3-yl)benzyl)oxy)-5,5a,6,6a-tetrahydro-cyclopropa[4,5] cyclopenta[1,2-c] pyridine-6-carboxylic acid] | 15 nM | 46 nM |
| Cc1cc(OCCCS(C)(=O)=O)nc(C)c1-c1cccc(COc2cc3c(cn2)[C@H]2[C@@H](C3)[C@@H]2C(=O)O)c1 [Compound 23-11, (5aR,6S,6aS)-3-((3-(2,4-dimethyl-6-(3-(methylsulfonyl)propoxy)pyridin-3-yl)benzyl)oxy)-5,5a, 6,6a-tetrahydrocyclo propa[4,5]cyclopenta [1,2-c]pyridine-6-carboxylic acid] | 25 nM | 50 nM |
| Cc1cc(OCCCS(C)(=O)=O)nc(C)c1-c1ccc(F)c(COc2cc3c(cn2)[C@H]2[C@@H](C3)[C@@H]2C(=O)O)c1 [Compound 23-12, (5aR,6S,6aS)-3-((5-(2,4-dimethyl-6-(3-(methylsulfonyl)propoxy)pyridin-3-yl)-2-fluorobenzyl)oxy)-5,5a,6,6a-tetrahydrocyclopropa [4,5]cyclopenta[1,2-c] pyridine-6-carboxylic acid] | 12 nM | 35 nM |
| Cc1nc(OCCCS(C)(=O)=O)nc(C)c1-c1ccc(F)c(COc2cc3c(cn2)C2C(C3)C2C(=O)O)c1 (stereo not drawn) [Compound 23-13, 3-((5-(4,6-dimethyl-2-(3-(methylsulfonyl)propoxy)pyrimidin-5-yl)-2-fluorobenzyl)-oxy)-5,5a,6,6a-tetrahydrocyclopropa [4,5]cyclopenta[1,2-c]pyridine-6-carboxylic acid] | 110 nM | 77 nM |
| Cc1nc(OCCCS(C)(=O)=O)sc1-c1ccc(F)c(COc2cc3c(cn2)C2C(C3)C2C(=O)O)c1 (stereo not drawn) [Compound 23-14, 3-((2-fluoro-5-(4-methyl-2-(3-(methylsulfonyl)-propoxy)thiazol-5-yl)-benzyl)oxy)-5,5a,6,6a-tetrahydrocyclopropa [4,5]cyclopenta[1,2-c] pyridine-6-carboxylic acid] | 34 nM | 18 nM |
| Cc1nc(OCCCN2CCCC2=O)ccc1-c1ccc(F)c(COc2cc3c(cn2)C2C(C3)C2C(=O)O)c1 (stereo not drawn) [Compound 23-15, 3-((2-fluoro-5-(2-methyl-6-(3-(2-oxopyrrolidin-1-yl)propoxy)pyridin-3-yl)benzyl)oxy)-5,5a,6,6a-tetahydrocyclopropa[4,5] cyclopenta[1,2-c]pyridine-6-carboxylic acid] | 27 nM | 38 nM |
| CS(=O)(=O)CCCOc1cc(OC(F)F)c(-c2ccc(F)c(COc3cc4c(cn3)[C@H]3[C@@H](C4)[C@@H]3C(=O)O)c2)cn1 [Compound 23-17, (5aR,6S,6aS)-3-((5-(4-(difluoro-methoxy)-6-(3-(methylsulfonyl)propoxy)pyridin-3-yl)-2-fluorobenzyl)-oxy)-5,5a,6,6a-tetrahydrocyclopropa [4,5]cyclopenta[1,2-c] pyridine-6-carboxylic acid] | 82 nM | 58 nM |
| Cc1nc(OCC(F)(F)C(F)(F)F)ccc1-c1ccc(F)c(COc2cc3c(cn2)C2C(C3)C2C(=O)O)c1 (stereo not drawn) [Compound 23-18, 3-((2-fluoro-5-(2-methyl-6-(2,2,3,3,3-pentafluoro-propoxy)pyridin-3-yl)-benzyl)oxy)-5,5a,6,6a-tetra-hydrocyclopropa[4,5] cyclopenta[1,2-c]pyridine-6-carboxylic acid] | 56 nM | 10 nM |
| Cc1nc(OCCCS(C)(=O)=O)ccc1-c1ccc(F)c(CNc2cc3c(cn2)C2C(C3)C2C(=O)O)c1 (stereo not drawn) [Compound 24-4, 3-((2-fluoro-5-(2-methyl-6-(3-(methylsulfonyl)propoxy)pyridin-3-yl)benzyl)amino)-5,5a,6,6a-tetrahydrocyclopropa[4,5]cyclopenta[1,2-c]pyridine-6-carboxylic acid] | 90 nM | 96 nM |
| O=C(O)[C@H]1[C@@H]2Cc3cc(OCc4cc(Oc5ccccc5C(F)(F)F)ccc4F)ncc3[C@@H]21 [Compound 25-2, 4-[2-Fluoro-5-(2-trifluoromethyl-phenoxy)-benzyloxy]-1,1a,6,6a-tetrahydro-3-aza-cyclopropa[a]indene-1-carboxylic acid] | 56 nM | 35 nM |
| O=C(O)[C@H]1[C@@H]2Cc3cc(OCc4cc(Oc5ccccc5)ccc4F)ncc3[C@@H]21 [Compound 25-3, 4-(2-Fluoro-5-phenoxy-benzyloxy)-1,1a, 6,6a-tetrahydro-3-aza-cyclopropa [a]indene-1-carboxylic acid] | 85 nM | 34 nM |
